Measurements taken from US20240287079A1, “6-AMINOPYRAZOLOPYRIMIDINE COMPOUND AND PHARMACEUTICAL USE THEREOF” (Japan Tobacco Inc., priority 2021, published 2024).

Biological target: NLRP3 inflammasome (Homo sapiens (Human), UniProt Q96P20)
Test: Evaluation of NLRP3 inflammasome inhibitory activity (inhibition of IL-1β production in LPS/Nigericin-stimulated THP1-Null cells)
Type: cell-based
Details: IL-1β production in THP1-Null cells; for IC50: PMA, LPS 1 μg/mL, Nigericin 7.5 μmol/L, AlphaLISA; for inhibition at 0.0024 µM: test compound 0.0024 μM; for inhibition at 2.4 µM: test compound 2.4 μM
Experimental: The NLRP3 inflammasome inhibitory activity of test compounds were evaluated on the basis of the inhibitory activity of the IL-1β production in THP1-Null cells (Product Number: thp-null, InvivoGen). […] The supernatant of the culture was removed, and thereto was added media for assay (25 μL/well) containing 1 μg/mL Lipopolysaccharides (Product Number: L2654, Sigma-Aldrich (registered trademark)). […] The supernatant of the culture was removed. […] A solution containing a test compound (20 μL/well) was added to test compound-setting wells. […] The supernatant of the culture was cryonically stored (set at −20° C.) until measurement of IL-1β.
The amount of IL-1β in the culture supernatant was quantitated with AlphaLISA(registered trademark) Human IL-1β Detection Kit (Product Number: AL220C, Perkin Elmer). Fluorescence intensity was measured with a microplate reader EnSpier (Model number: 2300-00J, Perkin Elmer) or EnSight(Model number: HH34000000, Perkin Elmer) according to procedure manuals attached thereto. Inhibition rates of the test compound-setting wells were calculated on the basis of 100% for the blank-setting wells and 0% for the control-setting wells.

NLRP3 inflammasome, sequence (Q96P20 whole entry): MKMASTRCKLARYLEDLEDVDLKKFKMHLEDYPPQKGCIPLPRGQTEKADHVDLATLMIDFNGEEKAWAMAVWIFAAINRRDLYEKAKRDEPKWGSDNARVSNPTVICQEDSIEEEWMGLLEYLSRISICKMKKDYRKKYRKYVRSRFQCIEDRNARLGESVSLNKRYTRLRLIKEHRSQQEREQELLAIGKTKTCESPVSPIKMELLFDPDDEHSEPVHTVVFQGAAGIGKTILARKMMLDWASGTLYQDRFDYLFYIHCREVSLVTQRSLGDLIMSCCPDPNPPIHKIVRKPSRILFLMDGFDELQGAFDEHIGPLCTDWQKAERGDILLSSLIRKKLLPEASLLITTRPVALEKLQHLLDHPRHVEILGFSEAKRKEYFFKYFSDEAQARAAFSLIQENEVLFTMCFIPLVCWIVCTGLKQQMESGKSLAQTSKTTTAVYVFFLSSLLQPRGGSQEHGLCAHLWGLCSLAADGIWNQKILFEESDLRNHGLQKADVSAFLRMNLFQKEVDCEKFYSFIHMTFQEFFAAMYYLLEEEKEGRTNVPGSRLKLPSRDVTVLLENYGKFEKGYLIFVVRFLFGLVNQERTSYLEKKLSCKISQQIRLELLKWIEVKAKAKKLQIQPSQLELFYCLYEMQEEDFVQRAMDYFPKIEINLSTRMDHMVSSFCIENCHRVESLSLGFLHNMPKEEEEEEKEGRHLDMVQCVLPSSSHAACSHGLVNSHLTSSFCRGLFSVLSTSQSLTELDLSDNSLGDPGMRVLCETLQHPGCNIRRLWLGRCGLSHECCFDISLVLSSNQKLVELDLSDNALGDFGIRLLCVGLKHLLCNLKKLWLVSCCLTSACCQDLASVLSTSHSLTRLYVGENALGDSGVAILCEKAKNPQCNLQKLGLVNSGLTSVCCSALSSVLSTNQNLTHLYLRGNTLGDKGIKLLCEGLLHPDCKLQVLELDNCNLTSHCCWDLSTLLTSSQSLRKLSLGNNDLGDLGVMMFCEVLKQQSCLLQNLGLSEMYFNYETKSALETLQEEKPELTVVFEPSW

| Compound | IC50 | other results |
| --- | --- | --- |
| O=c1[nH]c(N2CCOCC2)nc2nn(-c3ccc(Br)cc3C3CC3)cc12 [Example 196] | 11 nM |  |
| O=c1[nH]c(N2CCOCC2)nc2nn(-c3ccc(C4CC4)cc3C3CC3)cc12 [Example 210] | 7.3 nM |  |
| Cc1cc(C)c(-n2cc3c(=O)[nH]c(N4CC5C(C4)C5(F)F)nc3n2)c(C)c1 (stereo not drawn) [Example 114] | 27 nM |  |
| Cc1cc(Br)ccc1-n1cc2c(=O)[nH]c(N3CCN(C4CC4)C(=O)C3)nc2n1 [Example 152] | 77 nM |  |
| Cc1cc(Br)ccc1-n1cc2c(OCC#N)nc(N3CCOCC3)nc2n1 [Example 156] | 290 nM |  |
| CC(=O)N(C)c1nc2nn(-c3ccc(C)cc3C)cc2c(=O)[nH]1 [Example 66] | 4300 nM |  |
| Cc1cc(C2CC2)cc(F)c1-n1cc2c(=O)[nH]c(N3C[C@@H]4C[C@H]3CO4)nc2n1 [Example 300] | 15 nM |  |
| Cc1cc(C(C)C)ccc1-n1cc2c(=O)[nH]c(N3CCCC3)nc2n1 [Example 83] | 8.4 nM |  |
| Cc1cc(C2CC2)cc(Cl)c1-n1cc2c(=O)[nH]c(N3CCOCC3)nc2n1 [Example 147] |  | inhibition at 0.0024 µM: 54% |
| Cc1cc(Br)cc(C)c1-n1cc2c(=O)[nH]c(N3C=COCC3)nc2n1 [Example 362] | 2.6 nM |  |
| COc1cc(Cl)ccc1-n1cc2c(=O)[nH]c(N3CCCC3)nc2n1 [Example 205] | 32 nM |  |
| CC(C)Cc1ccccc1-n1cc2c(=O)[nH]c(N3CCOCC3)nc2n1 [Example 322] | 510 nM |  |
| Cc1cc(Br)cc(C)c1-n1cc2c(OC(F)F)nc(N3CCOCC3)nc2n1 [Example 332] |  | inhibition at 2.4 µM: 33% |
| Cc1cc(C(C)C(F)(F)F)cc(C)c1-n1cc2c(=O)[nH]c(N3CCOCC3)nc2n1 (racemic) [Example 294] | 270 nM |  |
| Cc1cc(-n2cc3c(=O)[nH]c(N4CCOCC4)nc3n2)c(C)cc1Cl [Example 265] | 350 nM |  |
| Cc1cc(Br)cc(C)c1-n1cc2c(=O)[nH]c(N3CC4CCC(C3)O4)nc2n1 [Example 278] | 7.9 nM |  |
| CC(=O)N1CCCN(c2nc3nn(-c4ccc(C(F)(F)F)cc4Cl)cc3c(=O)[nH]2)CC1 [Example 134] | 91 nM |  |
| O=c1[nH]c(N2CCCC2)nc2nn(-c3ccccc3OC(F)(F)F)cc12 [Example 9] | 1200 nM |  |
| COc1nc(N2CCN(S(C)(=O)=O)CC2)nc2nn(-c3ccc(Br)cc3C)cc12 [Example 137] | 170 nM |  |
| Cc1cc(C2CC2)ccc1-n1cc2c(=O)[nH]c(N3CCOCC3)nc2n1 [Example 242] | 24 nM |  |
| Cc1cc(C)c(-n2cc3c(=O)[nH]c(N4CCC(CO)CC4)nc3n2)c(C)c1 [Example 115] | 35 nM |  |
| Cc1cc(OC(F)F)cc(C)c1-n1cc2c(=O)[nH]c(N3CCOCCO3)nc2n1 [Example 352] | 68 nM |  |
| Cc1cc(Br)ccc1-n1cc2c(=O)[nH]c(N3CCN(S(=O)(=O)C4CC4)CC3)nc2n1 [Example 139] | 5.3 nM |  |
| Cc1ccccc1-n1cc2c(=O)[nH]c(Nc3ccccc3)nc2n1 [Example 24] | 2400 nM |  |
| O=c1[nH]c(N2CCOCC2)nc2nn(-c3c(Cl)cc(C(F)(F)F)cc3N3CCOCC3)cc12 [Example 256] |  | inhibition at 2.4 µM: 40% |

| Compound | IC50 | other results |
| --- | --- | --- |
| Cc1cc(CC(F)F)cc(C)c1-n1cc2c(=O)[nH]c(N3CCOCCO3)nc2n1 [Example 358] | 800 nM |  |
| Cc1c(-n2cc3c(=O)[nH]c(N4CCCC4)nc3n2)c(C(F)(F)F)nn1C(C)C [Example 346] | 81 nM |  |
| Cc1cc(C(F)(F)F)cc(C)c1-n1cc2c(=O)[nH]c(N3CCOC[C@H]3C)nc2n1 [Example 251] |  | inhibition at 0.0024 µM: 65% |
| Cc1ccccc1-n1cc2c(=O)[nH]c(Nc3c4c(cc5c3CCC5)CCC4)nc2n1 [Example 44] |  | inhibition at 24 µM (test compound 24 μM): 21% |
| COC[C@H]1CCN(c2nc3nn(-c4ccc(Br)cc4C)cc3c(=O)[nH]2)CCO1 [Example 193] | 42 nM |  |
| Cc1cc(Br)cc(C)c1-n1cc2c(=O)[nH]c(N3CC4CC3C4)nc2n1 (racemic) [Example 217] | 7.1 nM |  |
| Cc1cc(C(F)(F)F)cc(C)c1-n1cc2c(=O)[nH]c(N3CC4CCC(C3)O4)nc2n1 [Example 295] | 20 nM |  |
| Cc1cc(Br)ccc1-n1cc2c(=O)[nH]c(N3CC4CC3CO4)nc2n1 (racemic) [Example 159] | 11 nM |  |
| COCc1cc(Cl)ccc1-n1cc2c(=O)[nH]c(N3CCOCC3)nc2n1 [Example 143] | 59 nM |  |
| Cc1cccc(-n2cc3c(=O)[nH]c(N4CCCC4)nc3n2)c1 [Example 43] | 3400 nM |  |
| Cc1cc(C2=CCCCC2)ccc1-n1cc2c(=O)[nH]c(N3CCCC3)nc2n1 [Example 67] | 2300 nM |  |
| O=c1[nH]c(N2CCCC2)nc2nn(-c3cccc4ccccc34)cc12 [Example 68] | 1200 nM |  |
| Cc1ccccc1-n1cc2c(=O)[nH]c(N3CCC(O)C3)nc2n1 (racemic) [Example 21] | 1600 nM |  |
| Cc1cc(C)c(-n2cc3c(=O)[nH]c(N4CC5COCC5C4)nc3n2)c(C)c1 (stereo not drawn) [Example 117] | 46 nM |  |
| Cc1cc(Br)cc(C)c1-n1cc2c(=O)[nH]c(N3CCOC(O)C3)nc2n1 (racemic) [Example 364] | 66 nM |  |
| Cc1cc(Br)cc(C)c1-n1cc2c(=O)[nH]c(NCCOCCO)nc2n1 [Example 360] | 6.1 nM |  |
| Cc1c(Cl)ccc(-n2cc3c(=O)[nH]c(N4CCOCC4)nc3n2)c1C [Example 282] | 180 nM |  |
| O=c1[nH]c(N2CCOCC2)nc2nn(-c3ccccc3C(F)(F)F)cc12 [Example 25] | 950 nM |  |
| Cc1cc(C)cc(-n2cc3c(=O)[nH]c(N4CCCC4)nc3n2)c1 [Example 64] | 290 nM |  |
| Cc1cc(Br)cc(C)c1-n1cc2c(=O)[nH]c(NC3COC3)nc2n1 [Example 274] | 580 nM |  |
| O=c1[nH]c(N2CC3CNCC3C2)nc2nn(-c3ccc(C(F)(F)F)cc3Cl)cc12 (stereo not drawn) [Example 186] | 230 nM |  |
| COC[C@H]1CCCN1c1nc2nn(-c3ccccc3C)cc2c(=O)[nH]1 [Example 41] | 4100 nM |  |
| Cc1cc(Br)cc(C)c1-n1cc2c(=O)[nH]c(N3CCOCCO3)nc2n1 [Example 339] | 37 nM |  |
| Cc1cc(C2CC2)cc(Cl)c1-n1cc2c(=O)[nH]c(N3C[C@H]4C[C@@H]3CO4)nc2n1 [Example 287] | 9.6 nM |  |
| Cc1cc(Br)cc(C)c1-n1cc2c(=O)[nH]c(N3CCC(C#N)C3)nc2n1 (racemic) [Example 323] | 6.4 nM |  |

| Compound | IC50 | other results |
| --- | --- | --- |
| Cc1cc(Br)cc(C)c1-n1cc2c(=O)[nH]c(NCCO)nc2n1 [Example 359] |  | inhibition at 0.0024 µM: 69% |
| C=C(c1cc(C)c(-n2cc3c(=O)[nH]c(N4CCOCC4)nc3n2)c(C)c1)C(F)(F)F [Example 293] | 290 nM |  |
| Cc1ccc(-n2nc3nc(N4CCCC4)[nH]c(=O)c3c2C)c(C)c1 [Example 55] | 230 nM |  |
| Cc1ccccc1-n1cc2c(=O)[nH]c(N3CC(F)(F)C3)nc2n1 [Example 34] | 470 nM |  |
| CC(C)(C)OC(=O)N1CC2CN(c3nc4nn(-c5ccc(C(F)(F)F)cc5Cl)cc4c(=O)[nH]3)CC2C1 (stereo not drawn) [Example 179] | 27 nM |  |
| Cc1cc(Br)cc(C)c1-n1cc2c(=O)[nH]c(N3CCOC4CC43)nc2n1 (racemic) [Example 289] | 10 nM |  |
| O=c1[nH]c(N2CCOCC2)nc2nn(-c3c(F)cc(Br)cc3C(F)(F)F)cc12 [Example 272] | 22 nM |  |
| [2H]C([2H])([2H])Nc1nc2nn(-c3c(C)cc(C4CC4)cc3C)cc2c(=O)[nH]1 [Example 231] | 7.7 nM |  |
| CCOC1CCN(c2nc3nn(-c4ccc(C)cc4C)cc3c(=O)[nH]2)C1 (racemic) [Example 57] | 150 nM |  |
| Cc1cc(C2CC2)cc(C)c1-n1cc2c(=O)n(C)c(N3CC4CC(C3)O4)nc2n1 [Example 312] | 250 nM |  |
| Cc1cc(Br)ccc1-n1cc2c(=O)[nH]c(N3CCN(C(=O)C4CC4)CC3)nc2n1 [Example 140] | 5.8 nM |  |
| Cc1ccc(-n2cc3c(=O)[nH]c(N4CCN(C)CC4)nc3n2)c(C)c1 [Example 84] | 95 nM |  |
| COC1CN(c2nc3nn(-c4ccc(C)cc4C)cc3c(=O)[nH]2)C1 [Example 59] | 370 nM |  |
| O=c1[nH]c(N2CCOCC2)nc2nn(-c3ccc(Cl)cc3C(F)(F)F)cc12 [Example 176] | 27 nM |  |
| CCCNc1nc2nn(-c3ccccc3C)cc2c(=O)[nH]1 [Example 19] | 1400 nM |  |
| Cc1cc(OC(F)F)cc(C)c1-n1cc2c(=O)[nH]c(N3CCOCC3=O)nc2n1 [Example 354] | 220 nM |  |
| Cc1cc(C)c(-n2cc3c(=O)[nH]c(N4CCC(O)CC4)nc3n2)c(C)c1 [Example 105] | 64 nM |  |
| Cc1cc(N2CCC2)cc(C)c1-n1cc2c(=O)[nH]c(N3CCOCC3)nc2n1 [Example 327] | 80 nM |  |
| O=c1[nH]c(N2CCCC2)nc2nn(-c3ccc(F)cc3Cl)cc12 [Example 32] | 240 nM |  |
| O=c1[nH]c(N2CC(CCO)C2)nc2nn(-c3ccc(C(F)(F)F)cc3Cl)cc12 [Example 180] | 35 nM |  |
| COC1CCCN(c2nc3nn(-c4c(C)cc(C)cc4C)cc3c(=O)[nH]2)C1 (racemic) [Example 108] | 200 nM |  |
| Cc1cc(C(F)(F)F)cc(C)c1-n1cc2c(=O)[nH]c(N3CCOCC3)nc2n1 [Example 237] | 23 nM |  |
| COC1CN(c2nc3nn(-c4c(C)cccc4C)cc3c(=O)[nH]2)C1 [Example 50] | 1200 nM |  |
| Cc1cc(Br)cc(C)c1-n1cc2c(=O)[nH]c(NCCF)nc2n1 [Example 267] | 6.5 nM |  |
| CNC(=O)C1CCN(c2nc3nn(-c4c(C)cc(C)cc4C)cc3c(=O)[nH]2)C1 (racemic) [Example 110] | 80 nM |  |
